Consider eight compounds from patent US20190298775A1, “LIVER ORGANOID COMPOSITIONS AND METHODS OF MAKING AND USING SAME” (Children's Hospital Medical Center, priority 2016, published 2019).

A word on the cell viability: it is the share of living cells, or the viability signal relative to a control. Low values mean more harm to the cells, high ones less harm to the cells.

For data set [1], the system named is bile transport activity in liver organoids.
Experimental: To determine if FD can be used for live assessment of transport capacity without exchanging the medium and adjusting exposure, chronological hepatobiliary transport activity was further investigated with time-lapse imaging. […] The opposite directionality of this transport flow was determined by the micro-injection of FD into organoids.
To quantify the inhibitory potential for FD excretion, Applicant developed a simple but robust quantification method by determining the fluorescent intensity ratio between outside and inside the organoid by image J (FIG. 4, panel B).
Fluorescein diacetate was used for evaluating bile transport activity in organoids. Around Day 25, the organoids were rinsed with PBS, and, fluorescein diacetate was treated to organoids in medium. In addition, to investigate the direction of transport, fluorescein diacetate was injected to organoids using by Nanoject III (Drummond Scientific). After treatment or injection of fluorescein diacetate, images were captured on fluorescent microscopy BZ-X710 (Keyence). […] Changes in brightness or contrast during processing were applied equally across the entire image.
A further data set deals with lipotoxic organoid model. The data set is described as follows: Viability in organoids on vulnerable (lipotoxic, oleic acid) condition. The class given is cell-based, human. As to the method:
Next, 50 μM of Troglitazone was treated with or without 50 μM NAC for 24h. […] Images were captured sequentially using fluorescent microscopy BZ-9000.

The subject of the next data set is human liver organoids. The settings on record: for cell viability / organoid viability: human; for cell viability: 50 μM; for organoid viability: 130 μM.
The subject of a further data set is liver organoids. The data set is described as follows: Lipid accumulation in organoids after oleic acid (BODIPY live staining). The class given is cell-based, human. The settings on record: 3 days after oleic acid treatment. As to the method:
Images were captured sequentially using fluorescent microscopy BZ-9000. […] The following regents or kits were used: BODIPY® 493/503 for lipids (Thermo Fisher Scientific), and SiR Actin Kit for cytoskeleton (USA Scientific, FL, USA), CellROX® Green Reagent for ROS (Fisher Scientific), TMRM (Thermo Fisher Scientific) for mitochondria. […] ROS production, mitochondria size and number were analyzed by IMARIS 8.

Data set [2] relates to human iPSC-derived liver organoids. The data set is described as follows: Albumin secretion of organoids (ELISA). The class given is cell-based. The procedure: On Day 7-8, definitive endoderm organoids with plated cells were gently pipetted to delaminate from dishes. Isolated spheroids were centrifuged at 800 rpm for 3 minutes and, after removing supernatant, embedded in 100% matrigel drop on the dishes. The plates were placed at 37° C. in an atmosphere of 5% CO2/95% air for 5-15 min. After the Matrigel was solidified, Advanced DMEM/F12 was added with B27, N2 and Retinoic acid (RA; Sigma, St. Louis, Mo.) 2 μM for 1-5 days. The media was replaced every other day. After RA treatment, organoids embedded in Matrigel drop were cultured in Hepatocyte culture medium (HCM Lonza, Walkersville, Md.) with 10 ng/mL hepatocyte growth factor (HGF; PeproTech, Rocky Hill, N.J.), 0.1 μM Dexamethasone (Dex; Sigma) and 20 ng/mL Oncostatin M (OSM; R&D Systems). Cultures for cell differentiation were maintained at 37° C. in an atmosphere of 5% CO2/95% air and the medium was replaced every 3 days. Around Day 20-30, organoids embedded in Matrigel drop were isolated by scratching and gentle pipetting for any analyses.
For measuring albumin, fibrinogen and complement factors secreted level of organoids, 200 μL of culture supernatant of organoids on Ultra-Low attachment 96 well plates (Corning) were collected. The culture supernatants were collected and stored at −80° C. until use. The supernatant was assayed with Human Albumin ELISA Quantitation Set (Bethyl Laboratories, Inc., TX, USA) and fibrinogen (Thermo Fisher Scientific) according to the manufacturer's instructions. For analyzing complement factors, supernatants were measured with Luminex System (Luminex Corporation, Austin, Tex.) according to the manufacturer's instructions. To calculate albumin production per the number of cells, the linear regression equation of cell numbers by diameter of an organoid was used. For measuring total bile acid secreted level intra-luminal organoids, fluid inside organoids was absorbed using microinjection Nanoject II (Drummond Scientific, Broomall, Pa., USA). Fluid absorbed was dilute in PBS and assayed with Total Bile Acid ELISA Kit (Antibodies-online, Inc., GA, USA). To calculate the volume of total bile acid, the number of cells in organoid was calculated using the linear regression equation in the same manner for albumin production and the molecular weight of cholic acid was used for calculation and comparing with volume in previous report.

Structures are written as SMILES. Where two headings read alike, the source gives them in different places.

Turning to `Cc1c(C)c2c(c(C)c1O)CCC(C)(COc1ccc(CC3SC(=O)NC3=O)cc1)O2` (stereo not shown) [Troglitazone], in data set [1], the “efflux of FD (bile transport inhibition)” value was “significantly decreased”. Moreover, the “cell viability compared to control” value in the data set with lipotoxic organoid model (lipotoxic condition (800 μM oleic acid 3 days), 50 μM for 24h, p<0.05) is listed as −40%. Besides, the “organoid morphology on lipotoxic condition” value in the data set with lipotoxic organoid model (lipotoxic condition, 24h) is “massive fragmentation of organoids”. Further, the “cell viability at 72 hours relative to TOL, DICLO and BOS” value with human liver organoids is reported as “significantly lowered”. Besides, the cell viability in the data set with human liver organoids (24 h) turned out to be 85%; in the data set on human liver organoids (72 h), 67%.

For `COc1ccccc1Oc1c(NS(=O)(=O)c2ccc(C(C)(C)C)cc2)nc(-c2ncccn2)nc1OCCO` [Bosentan], the “efflux of FD (bile transport inhibition)” value in data set [1] was “significantly decreased”.

`CN(CCOc1ccc(CC2SC(=O)NC2=O)cc1)c1ccccn1` (stereo not shown) [Rosiglitazone]: in the data set on lipotoxic organoid model, the “toxicity in steatotic organoids” value is given as “vulnerable”.

As to `CCCCCCCC/C=C\CCCCCCCC(=O)O` [oleic acid], the “lipid accumulation in organoids” value in the data set on liver organoids is reported as “intense”.

For the compound `CC1=C(/C=C/C(C)=C/C=C/C(C)=C/C(=O)O)C(C)(C)CCC1` [RA, retinoic acid], the “albumin secretion level of organoids at D25” value in data set [2] (1 day of RA treatment) was found to be 1160 ng/mL; in data set [2] (2 days of RA treatment), 1054 ng/mL; in data set [2] (3 days of RA treatment) it was 3092 ng/mL; in data set [2] (4 days of RA treatment), 4709 ng/mL; in data set [2] (5 days of RA treatment), 3865 ng/mL.

`CCN(CC)C(=O)/C(C#N)=C/c1cc(O)c(O)c([N+](=O)[O-])c1` [Entacapone]: the results for the organoid viability in the data set with human liver organoids (24 h) and with human liver organoids (72 h) were 85% and 64%, respectively.

Consider `CC(=O)N[C@@H](CS)C(=O)O` [NAC, N-acetylcysteine], for which the “cell viability with NAC (rescue from Troglitazone toxicity)” value in the data set on lipotoxic organoid model (lipotoxic condition, 50 μM Troglitazone with 50 μM NAC, 24h) is recorded as “significantly improved”.

For `CCc1nn(CCCN2CCN(c3cccc(Cl)c3)CC2)c(=O)n1CCOc1ccccc1` [Nefazodone], the “efflux of FD (bile transport inhibition)” value in data set [1] is listed as “significantly decreased”. Besides, the “cell viability at 72 hours relative to TOL, DICLO and BOS” value with human liver organoids is “significantly lowered”.
